According to PubChem BioAssay AID330 (DTP/NCI, 2004):
Values joined by “and” are separate entries in the source; they are usually repeats but may differ in a detail not shown here. Identical values can stand only once. Inconclusive results and toxic doses are left out.

Tested on: P388 leukemia ip, CD2F1 mice, survival T/C
Experiment: NCI In Vivo Anticancer Drug Screen. Data for tumor model P388 Leukemia (intraperitoneal) in CD2F1 (CDF1) mice
Settings: endpoint: median survival time, higher = longer survival
How it was run: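 Mice carrying the transplanted tumor received test compound or vehicle. Survival was recorded in each group, and the value is the treated-group measurement divided by that of the vehicle-treated control group.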

[1] = dose: 60.0 mg/kg/injection, schedule: Q01DX005 (ip), vehicle: saline with Tween-80
[2] = dose: 120.0 mg/kg/injection, schedule: Q01DX005 (ip), vehicle: saline with Tween-80
[3] = dose: 240.0 mg/kg/injection, schedule: Q01DX005 (ip), vehicle: saline with Tween-80
[4] = dose: 100.0 mg/kg/injection, schedule: Q01DX009 (ip), vehicle: saline
[5] = dose: 200.0 mg/kg/injection, schedule: Q01DX009 (ip), vehicle: saline with Tween-80
[6] = dose: 200.0 mg/kg/injection, schedule: Q01DX009 (ip), vehicle: saline
[7] = dose: 100.0 mg/kg/injection, schedule: Q04DX003 (ip), vehicle: saline with Tween-80
[8] = dose: 200.0 mg/kg/injection, schedule: Q04DX003 (ip), vehicle: saline with Tween-80
[9] = dose: 400.0 mg/kg/injection, schedule: Q04DX003 (ip), vehicle: saline with Tween-80
[10] = dose: 100.0 mg/kg/injection, schedule: Q04DX002 (ip), vehicle: saline with Tween-80
[11] = dose: 200.0 mg/kg/injection, schedule: Q04DX002 (ip), vehicle: saline with Tween-80
[12] = dose: 400.0 mg/kg/injection, schedule: Q04DX002 (ip), vehicle: saline with Tween-80
[13] = dose: 25.0 mg/kg/injection, schedule: Q01DX005 (ip), vehicle: saline
[14] = dose: 50.0 mg/kg/injection, schedule: Q01DX005 (ip), vehicle: saline
[15] = dose: 50.0 mg/kg/injection, schedule: Q01DX009 (ip), vehicle: saline

Cc1ccc2c(c1O)NC(O)c1cccn1C2=O (configuration not stated)
T/C (dose: 0.1 mg/kg/injection, schedule: Q01DX005 (ip), vehicle: water): 99 % of control | T/C (dose: 0.2 mg/kg/injection, schedule: Q01DX005 (ip), vehicle: water): 111 % of control | T/C (dose: 0.4 mg/kg/injection, schedule: Q01DX005 (ip), vehicle: water): 100 % of control | T/C (dose: 0.8 mg/kg/injection, schedule: Q01DX005 (ip), vehicle: water): 98 % of control | T/C (dose: 1.6 mg/kg/injection, schedule: Q01DX005 (ip), vehicle: water): 96 % of control | T/C (dose: 5.0 mg/kg/injection, schedule: Q01DX005 (ip), vehicle: distilled water + Tween-80): 92 % of control | T/C (dose: 10.0 mg/kg/injection, schedule: Q01DX005 (ip), vehicle: distilled water + Tween-80): 98 % of control | T/C (dose: 20.0 mg/kg/injection, schedule: Q01DX005 (ip), vehicle: distilled water + Tween-80): 91 % of control | T/C (dose: 80.0 mg/kg/injection, schedule: Q01DX005 (ip), vehicle: distilled water + Tween-80): 86 % of control

COC(=O)c1nn(Cc2ccccc2)cc1C=O
T/C [1]: 99 % of control | T/C [2]: 92 % of control | T/C [3]: 92 % of control

Cc1nc(N)[nH]c(=O)c1CCCCC#N
T/C (dose: 60.0 mg/kg/injection, schedule: Q01DX005 (ip), vehicle: Klucel (hydroxypropylcellulose) (HPC)): 104 % of control | T/C (dose: 120.0 mg/kg/injection, schedule: Q01DX005 (ip), vehicle: Klucel (hydroxypropylcellulose) (HPC)): 104 % of control

O=C1CC2(CCCC2)CC(=O)N1c1ccc(-c2ccc(N3C(=O)CC4(CCCC4)CC3=O)cc2)cc1
T/C (dose: 50.0 mg/kg/injection, schedule: Q01DX009 (ip), vehicle: Klucel (hydroxypropylcellulose) (HPC)): 100 % of control | T/C (dose: 100.0 mg/kg/injection, schedule: Q01DX009 (ip), vehicle: Klucel (hydroxypropylcellulose) (HPC)): 94 % of control

NC(=O)NC(=O)C(Cc1ccccc1)c1ccccc1 (configuration not stated)
T/C [1]: 99 % of control | T/C [2]: 95 % of control | T/C [3]: 86 % of control

Oc1cc2c(cc1C(c1ccc3c(c1)OCO3)N1CCOCC1)OCO2 (configuration not stated)
T/C [1]: 118 % of control | T/C [2]: 106 % of control | T/C [3]: 111 % of control

Oc1cccnc1Cl
T/C (dose: 25.0 mg/kg/injection, schedule: Q01DX009 (ip), vehicle: saline with Tween-80): 110 % of control | T/C (dose: 50.0 mg/kg/injection, schedule: Q01DX009 (ip), vehicle: saline with Tween-80): 114 % of control | T/C (dose: 100.0 mg/kg/injection, schedule: Q01DX009 (ip), vehicle: saline with Tween-80): 114 % of control | T/C [4]: 102 % of control | T/C [5]: 119 % of control | T/C [6]: 101 % of control | T/C (dose: 400.0 mg/kg/injection, schedule: Q01DX009 (ip), vehicle: saline): 108 % of control

CCO/C=C1\SC(=S)N(c2ccccc2OC)C1=O
T/C (dose: 88.0 mg/kg/injection, schedule: Q01DX009 (ip), vehicle: saline with Tween-80): 118 % of control | T/C [7]: 104 % of control | T/C (dose: 132.0 mg/kg/injection, schedule: Q01DX009 (ip), vehicle: saline with Tween-80): 119 % of control | T/C (dose: 178.0 mg/kg/injection, schedule: Q04DX003 (ip), vehicle: saline with Tween-80): 118 % of control | T/C [5]: 112 % of control | T/C [8]: 109 % of control | T/C (dose: 266.0 mg/kg/injection, schedule: Q04DX003 (ip), vehicle: saline with Tween-80): 118 % of control | T/C [9]: 122 % of control

OC1c2ccccc2-c2ccccc2C1O (configuration not stated)
T/C [10]: 101 % of control and 102 % of control | T/C [11]: 101 % of control and 97 % of control | T/C [12]: 101 % of control

O=c1nc(-c2ccccc2)nc(-c2ccccc2)[nH]1
T/C [10]: 93 % of control | T/C [11]: 89 % of control | T/C [12]: 108 % of control

CCCCN(CCCC)CC(C)(O)CNc1cc(OC)cc2cccnc12 (configuration not stated)
T/C [13]: 101 % of control | T/C [14]: 107 % of control | T/C (dose: 100.0 mg/kg/injection, schedule: Q01DX005 (ip), vehicle: saline): 98 % of control

CC1=CCN(C)C(C#N)C1 (configuration not stated)
T/C (dose: 12.5 mg/kg/injection, schedule: Q01DX005 (ip), vehicle: saline): 97 % of control | T/C [13]: 105 % of control | T/C [14]: 105 % of control

c1ccc2sc(N3CCCCC3)nc2c1
T/C (dose: 25.0 mg/kg/injection, schedule: Q04DX003 (ip), vehicle: Klucel (hydroxypropylcellulose) (HPC)): 105 % of control | T/C [15]: 104 % of control | T/C (dose: 50.0 mg/kg/injection, schedule: Q04DX003 (ip), vehicle: Klucel (hydroxypropylcellulose) (HPC)): 99 % of control | T/C [4]: 104 % of control | T/C (dose: 100.0 mg/kg/injection, schedule: Q04DX003 (ip), vehicle: Klucel (hydroxypropylcellulose) (HPC)): 100 % of control | T/C [6]: 103 % of control | T/C (dose: 200.0 mg/kg/injection, schedule: Q04DX003 (ip), vehicle: Klucel (hydroxypropylcellulose) (HPC)): 109 % of control

COC(=O)c1nc2[nH]n(-c3ccccc3)c(=O)c2c2c1CCCCCCCCCC2
T/C (dose: 60.0 mg/kg/injection, schedule: Q01DX005 (ip), vehicle: saline): 102 % of control | T/C (dose: 120.0 mg/kg/injection, schedule: Q01DX005 (ip), vehicle: saline): 96 % of control | T/C (dose: 240.0 mg/kg/injection, schedule: Q01DX005 (ip), vehicle: saline): 96 % of control

CC([NH-])CC(C)[NH-].O=[N+]([O-])O.O=[N+]([O-])O.[Pt+2] (configuration not stated)
T/C (dose: 25.0 mg/kg/injection, schedule: Q04DX002 (ip), vehicle: saline): 159 % of control

N#Cc1cn(Cc2ccccc2)c2ccccc2c1=O
T/C (dose: 50.0 mg/kg/injection, schedule: Q01DX005 (ip), vehicle: Klucel (hydroxypropylcellulose) (HPC)): 100 % of control | T/C (dose: 100.0 mg/kg/injection, schedule: Q01DX005 (ip), vehicle: Klucel (hydroxypropylcellulose) (HPC)): 103 % of control | T/C (dose: 200.0 mg/kg/injection, schedule: Q01DX005 (ip), vehicle: Klucel (hydroxypropylcellulose) (HPC)): 103 % of control

CC(C)N1CCOC(c2cccc(C(F)(F)F)c2)C1 (configuration not stated)
T/C [15]: 101 % of control | T/C [4]: 99 % of control

CC1(C)C(=O)C=CC2(C)C1CC(O)C1(C)C2CCC2(C)C(c3ccoc3)OC(=O)C3OC321 (configuration not stated)
T/C (dose: 1.5 mg/kg/injection, schedule: Q01DX009 (ip), vehicle: Klucel (hydroxypropylcellulose) (HPC)): 98 % of control | T/C (dose: 3.0 mg/kg/injection, schedule: Q01DX009 (ip), vehicle: Klucel (hydroxypropylcellulose) (HPC)): 103 % of control | T/C (dose: 6.0 mg/kg/injection, schedule: Q01DX009 (ip), vehicle: Klucel (hydroxypropylcellulose) (HPC)): 101 % of control | T/C (dose: 12.0 mg/kg/injection, schedule: Q01DX009 (ip), vehicle: Klucel (hydroxypropylcellulose) (HPC)): 102 % of control

CCCc1nc2ccccc2c(=O)n1/N=C/c1ccsc1
T/C [7]: 100 % of control | T/C [8]: 90 % of control | T/C [9]: 90 % of control

CCN(CC)CCSc1nnc(-c2cc(OC)c(OC)c(OC)c2)o1
T/C (dose: 50.0 mg/kg/injection, schedule: Q04DX003 (ip), vehicle: water): 100 % of control | T/C (dose: 100.0 mg/kg/injection, schedule: Q04DX003 (ip), vehicle: water): 103 % of control

O=C(O)CS(=O)(=O)CCCCS(=O)(=O)CC(=O)O
T/C [15]: 104 % of control | T/C [4]: 103 % of control | T/C [6]: 100 % of control

COC(=O)c1cc(-c2ccc(OC)cc2)[nH]c(=O)c1C#N
T/C [1]: 100 % of control | T/C [2]: 91 % of control

COc1cc([C@H]2c3cc(O)c(OC)cc3C[C@]3(O)[C@@H]2CO[C@@H]3O)ccc1O
T/C (dose: 4.75 mg/kg/injection, schedule: Q01DX005 (ip), vehicle: saline with Tween-80): 104 % of control | T/C (dose: 9.5 mg/kg/injection, schedule: Q01DX005 (ip), vehicle: saline with Tween-80): 95 % of control | T/C (dose: 19.0 mg/kg/injection, schedule: Q01DX005 (ip), vehicle: saline with Tween-80): 96 % of control | T/C (dose: 38.0 mg/kg/injection, schedule: Q01DX005 (ip), vehicle: saline with Tween-80): 99 % of control

S=c1nc[nH]c2c1ncn2C1C=CCCC1 (configuration not stated)
T/C [7]: 90 % of control | T/C (dose: 176.0 mg/kg/injection, schedule: Q01DX009 (ip), vehicle: saline with Tween-80): 100 % of control | T/C [8]: 90 % of control | T/C (dose: 264.0 mg/kg/injection, schedule: Q01DX009 (ip), vehicle: saline with Tween-80): 95 % of control | T/C (dose: 400.0 mg/kg/injection, schedule: Q01DX009 (ip), vehicle: saline with Tween-80): 118 % of control | T/C [9]: 90 % of control

CC(=O)OC1/C=C\CC/C=C\C1 (configuration not stated)
T/C [1]: 99 % of control | T/C [2]: 102 % of control | T/C [3]: 103 % of control
